Source: ChEMBL document CHEMBL1909046, “DrugMatrix in vitro pharmacology data”

Tests used:
[1] = DRUGMATRIX: Serotonin (5-Hydroxytryptamine) 5-HT3 radioligand binding (ligand: [3H] GR-65630); type: cell membranes, Membrane; conditions: hek293; Not Active = under 50% inhibition at 10 µM
Leukotriene C4 synthase = target: T1, Leukotriene C4 synthase (Cavia porcellus, UniProt A6XA80); type: tissue-based, Lung;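 note: enzyme inhibition assay of leukotriene C4 synthase, using LTA4 as the substrate; in other assays of this panel Not Active means under 50% inhibition at 10 µM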
T1 sequence (A6XA80 whole entry): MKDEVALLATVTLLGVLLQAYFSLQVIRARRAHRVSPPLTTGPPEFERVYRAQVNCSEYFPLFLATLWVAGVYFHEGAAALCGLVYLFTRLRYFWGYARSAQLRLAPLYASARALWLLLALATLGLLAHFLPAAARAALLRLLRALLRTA

[2] = DRUGMATRIX: Calcium Channel Type L, Benzothiazepine radioligand binding (ligand: [3H] Diltiazem); type: cell membranes, Rattus norvegicus, Wistar, Brain, Membrane; conditions: Not Active = under 50% inhibition at 10 µM
Neutrophil elastase = target: T2, Neutrophil elastase (Homo sapiens, UniProt P08246); type: tissue-based;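 note: inhibition of neutrophil elastase enzyme activity, measured with a p-nitroanilide-linked peptide substrate; in other assays of this panel Not Active means under 50% inhibition at 10 µM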
T2 sequence (P08246 whole entry): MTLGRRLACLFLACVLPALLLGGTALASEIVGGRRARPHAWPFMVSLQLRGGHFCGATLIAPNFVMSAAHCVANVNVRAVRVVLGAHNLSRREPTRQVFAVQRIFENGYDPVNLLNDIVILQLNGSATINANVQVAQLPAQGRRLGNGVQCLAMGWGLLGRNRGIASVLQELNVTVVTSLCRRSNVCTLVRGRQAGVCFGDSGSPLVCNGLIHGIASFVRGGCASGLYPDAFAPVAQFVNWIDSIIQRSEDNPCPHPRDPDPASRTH

[3] = target: Voltage-gated inwardly rectifying potassium channel KCNH2 (Homo sapiens, UniProt Q12809); conditions: hek293; note: in other assays of this panel Not Active means under 50% inhibition at 10 µM
Chain of Voltage-gated inwardly rectifying potassium channel KCNH2 (Q12809 whole entry): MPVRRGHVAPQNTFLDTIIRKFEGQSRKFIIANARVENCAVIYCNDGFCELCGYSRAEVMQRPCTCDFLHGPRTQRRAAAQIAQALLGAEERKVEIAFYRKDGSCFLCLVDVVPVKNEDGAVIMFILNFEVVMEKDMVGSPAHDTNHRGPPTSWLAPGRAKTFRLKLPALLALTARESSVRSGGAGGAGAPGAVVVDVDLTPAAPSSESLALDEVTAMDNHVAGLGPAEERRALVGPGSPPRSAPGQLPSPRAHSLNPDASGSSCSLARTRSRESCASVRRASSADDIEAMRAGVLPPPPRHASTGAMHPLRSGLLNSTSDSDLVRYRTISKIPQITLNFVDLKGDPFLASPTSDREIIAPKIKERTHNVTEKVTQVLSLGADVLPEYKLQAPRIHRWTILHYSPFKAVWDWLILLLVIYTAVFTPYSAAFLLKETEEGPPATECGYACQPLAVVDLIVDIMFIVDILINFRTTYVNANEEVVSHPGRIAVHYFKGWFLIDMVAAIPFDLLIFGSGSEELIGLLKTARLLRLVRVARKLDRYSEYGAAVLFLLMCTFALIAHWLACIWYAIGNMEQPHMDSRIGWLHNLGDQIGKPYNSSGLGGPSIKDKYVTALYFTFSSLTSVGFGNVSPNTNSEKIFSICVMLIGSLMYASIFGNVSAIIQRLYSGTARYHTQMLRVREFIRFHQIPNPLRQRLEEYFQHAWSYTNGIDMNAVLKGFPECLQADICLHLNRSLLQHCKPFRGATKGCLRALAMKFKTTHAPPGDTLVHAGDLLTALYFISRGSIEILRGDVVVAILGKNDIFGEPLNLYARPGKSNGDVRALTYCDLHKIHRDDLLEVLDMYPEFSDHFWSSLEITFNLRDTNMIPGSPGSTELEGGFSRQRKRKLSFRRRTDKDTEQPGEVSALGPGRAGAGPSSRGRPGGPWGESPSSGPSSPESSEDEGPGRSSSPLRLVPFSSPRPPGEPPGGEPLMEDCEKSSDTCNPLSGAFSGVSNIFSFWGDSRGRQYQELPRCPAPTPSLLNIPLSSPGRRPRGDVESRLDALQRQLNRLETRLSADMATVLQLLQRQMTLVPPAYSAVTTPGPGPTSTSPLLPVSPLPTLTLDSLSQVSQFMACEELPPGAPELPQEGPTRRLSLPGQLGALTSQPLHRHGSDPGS

Substance-K receptor = target: T3, Substance-K receptor (Homo sapiens, UniProt P21452); type: cell membranes, CHO, Membrane; conditions: cho; note: in other assays of this panel Not Active means under 50% inhibition at 10 µM
T3 sequence (P21452 whole entry): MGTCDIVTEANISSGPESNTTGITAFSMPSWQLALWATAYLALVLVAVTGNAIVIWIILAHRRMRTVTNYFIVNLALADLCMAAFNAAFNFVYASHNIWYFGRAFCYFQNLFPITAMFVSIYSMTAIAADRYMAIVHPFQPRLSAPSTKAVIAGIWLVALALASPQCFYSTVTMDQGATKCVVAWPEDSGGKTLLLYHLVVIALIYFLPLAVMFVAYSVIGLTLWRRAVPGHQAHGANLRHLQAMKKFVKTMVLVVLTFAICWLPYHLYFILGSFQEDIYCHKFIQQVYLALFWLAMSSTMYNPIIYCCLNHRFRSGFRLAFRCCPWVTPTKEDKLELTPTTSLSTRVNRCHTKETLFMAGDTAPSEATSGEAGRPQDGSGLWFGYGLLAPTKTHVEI

LEAD (II) ACETATE
Not Active: IC50 [1] | Ki [1] | IC50 (Leukotriene C4 synthase) | Ki (Leukotriene C4 synthase) | IC50 [2] | Ki [2] | IC50 (Neutrophil elastase) | Ki (Neutrophil elastase) | IC50 [3] | Ki [3] | IC50 (Substance-K receptor) | Ki (Substance-K receptor)

LIPOPOLYSACCHARIDE E. COLI O55:B5
Not Active: IC50 [1] | Ki [1] | IC50 (Leukotriene C4 synthase) | Ki (Leukotriene C4 synthase) | IC50 [2] | Ki [2] | IC50 (Neutrophil elastase) | Ki (Neutrophil elastase) | IC50 [3] | Ki [3] | IC50 (Substance-K receptor) | Ki (Substance-K receptor)
